Experimental data published in ChEMBL document CHEMBL3044719, “Synthesis of pyrazole-based 1,5-diaryl compounds as potent anti-inflammatory agents” (2012).

Columns and labels:
Rattus norvegicus [1] = assay: Anti-inflammatory activity in Rattus norvegicus Wistar albino (rat) assessed as growth of carrageenan-induced paw edema after 90 min (reference value: 1.36 +/- 0.070%); format: functional
Rattus norvegicus [2] = assay: Anti-inflammatory activity in Rattus norvegicus Wistar albino (rat) assessed as inhibition of carrageenan-induced paw edema after 90 min (reference value: 38.7%)
Rattus norvegicus [3] = assay: Anti-inflammatory activity in Rattus norvegicus Wistar albino (rat) assessed as inhibition of carrageenan-induced paw edema after 180 min (reference value: 22.3%); format: functional
Rattus norvegicus [4] = assay: Anti-inflammatory activity in Rattus norvegicus Wistar albino (rat) assessed as inhibition of carrageenan-induced paw edema after 30 min (reference value: 30.1%); format: functional
Rattus norvegicus [5] = assay: Anti-inflammatory activity in Rattus norvegicus Wistar albino (rat) assessed as growth of carrageenan-induced paw edema after 30 min (reference value: 1.27 +/- 0.043%); format: functional

Row | SMILES | Activity (Rattus norvegicus [1]) [%] | inhibition (INH) (Rattus norvegicus [2]) [%] | inhibition (INH) (Rattus norvegicus [3]) [%] | inhibition (INH) (Rattus norvegicus [4]) [%] | Activity (Rattus norvegicus [5]) [%]
1 | COC(=O)c1c(C)nn(-c2ccccc2)c1OCCCOc1c(C(=O)OC)c(C)nn1-c1ccccc1 | 1.49 | 24.4 | 17.9 | 15.1 | 1.34
2 | COC(=O)c1c(C)nn(-c2ccccc2)c1OCCCN1C(=O)c2ccccc2C1=O | 1.39 | 4.8 | 1.7 | 5.9 | 1.25
3 | CCOC(=O)c1c(C)nn(-c2ccccc2)c1OCCCN1C(=O)c2ccccc2C1=O | 1.18 | 44.7 | 39.3 | 38.9 | 1.11
4 | COC(=O)c1c(C)nn(-c2ccccc2)c1OCCCn1c(C)cc(C)c(C#N)c1=O | 1.03 | 29.7 | 18.5 | 17.6 | 0.94
5 | CCOC(=O)c1c(C)nn(-c2ccccc2)c1OCCCn1c(C)cc(C)c(C#N)c1=O | 1.16 | 28.5 | 20.4 | 22.4 | 1.05
6 | COC(=O)c1c(C)nn(-c2ccccc2)c1OCCCOc1nc(C)cc(C)c1C#N | 0.92 | 28.7 | 24.9 | 16.8 | 0.81
7 | CCOC(=O)c1c(C)nn(-c2ccccc2)c1OCCCOc1nc(C)cc(C)c1C#N | 1.18 | 24.6 | 16.8 | 21.4 | 1.22
8 | CS(=O)(=O)Nc1ccc([N+](=O)[O-])cc1Oc1ccccc1 [NIMESULIDE] | 1.25 | 7.9 | 2.54 | 10.8 | 1.29
